# What was measured:
# Assay in all cases: relative viability (nuclei count vs DMSO), 5 days (fraction); higher = more cells survive
# 201T = tested on: 201T
# Summary of the method: (§1)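 Relative viability divides the nuclei count in treated wells by that in vehicle wells. Lung cancer cell lines were seeded in 1536-well plates, dosed by pin tool the next day, and fixed and stained after 5 days in one step with final 0.05% Triton X-100, 1% formaldehyde and 1 ug/ml Hoechst. Dosing was a single drug or a fixed anchor-drug dose plus five library-drug doses (not always all listed) in √10 steps, and values are medians of duplicate plates imaged at 4×.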
# BEN = tested on: BEN
# Summary of the method: as §1
# EMC-BAC-2 = tested on: EMC-BAC-2
# Summary of the method: as §1
# HARA = tested on: HARA
# Summary of the method: as §1
# HCC-44 = tested on: HCC-44
# Summary of the method: as §1
# LOU-NH91 = tested on: LOU-NH91
# Summary of the method: as §1
# NCI-H1395 = tested on: NCI-H1395
# Summary of the method: as §1
# NCI-H1666 = tested on: NCI-H1666
# Summary of the method: as §1
# NCI-H1993 = tested on: NCI-H1993
# Summary of the method: as §1
# NCI-H2009 = tested on: NCI-H2009
# Summary of the method: as §1
# NCI-H2023 = tested on: NCI-H2023
# Summary of the method: as §1
# NCI-H2087 = tested on: NCI-H2087
# Summary of the method: as §1
# NCI-H2126 = tested on: NCI-H2126
# Summary of the method: as §1
# NCI-H2347 = tested on: NCI-H2347
# Summary of the method: as §1
# NCI-H23 = tested on: NCI-H23
# Summary of the method: as §1
# NCI-H3122 = tested on: NCI-H3122
# Summary of the method: as §1
# NCI-H596 = tested on: NCI-H596
# Summary of the method: as §1
# NCI-H647 = tested on: NCI-H647
# Summary of the method: as §1
# NCI-H650 = tested on: NCI-H650
# Summary of the method: as §1
# NCI-H727 = tested on: NCI-H727
# Summary of the method: as §1
# NCI-H838 = tested on: NCI-H838
# Summary of the method: as §1
smiles,measurement,setting,value
C[C@@H]1CN(CC(=O)Nc2ccc3c(c2)Cc2cccc(-c4cc(=O)cc(N5CCOCC5)o4)c2S3)C[C@H](C)O1 + CS(=O)(=O)CCNCc1ccc(-c2ccc3ncnc(Nc4ccc(OCc5cccc(F)c5)c(Cl)c4)c3c2)o1 [Lapatinib] (partner 2 µM),relative viability,201T; first compound 0.04 µM,1.07
same,relative viability,201T; first compound 0.1265 µM,0.976
same,relative viability,201T; first compound 0.4 µM,1.08
same,relative viability,201T; first compound 4 µM,0.988
same,relative viability,BEN; first compound 0.04 µM,0.609
same,relative viability,BEN; first compound 0.1265 µM,0.666
same,relative viability,BEN; first compound 0.4 µM,0.738
same,relative viability,BEN; first compound 4 µM,0.745
same,relative viability,EMC-BAC-2; first compound 0.04 µM,0.903
same,relative viability,EMC-BAC-2; first compound 0.1265 µM,0.934
same,relative viability,EMC-BAC-2; first compound 0.4 µM,0.775
same,relative viability,EMC-BAC-2; first compound 4 µM,0.827
same,relative viability,HARA; first compound 0.04 µM,0.732
same,relative viability,HARA; first compound 0.1265 µM,0.613
same,relative viability,HARA; first compound 0.4 µM,0.796
same,relative viability,HARA; first compound 4 µM,0.738
same,relative viability,HCC-44; first compound 0.04 µM,0.94
same,relative viability,HCC-44; first compound 0.1265 µM,1.02
same,relative viability,HCC-44; first compound 0.4 µM,1.07
same,relative viability,HCC-44; first compound 4 µM,0.922
same,relative viability,LOU-NH91; first compound 0.04 µM,0.689
same,relative viability,LOU-NH91; first compound 0.1265 µM,0.792
same,relative viability,LOU-NH91; first compound 0.4 µM,0.676
same,relative viability,LOU-NH91; first compound 4 µM,0.733
same,relative viability,NCI-H1395; first compound 0.04 µM,0.928
same,relative viability,NCI-H1395; first compound 0.1265 µM,1
same,relative viability,NCI-H1395; first compound 0.4 µM,1.06
same,relative viability,NCI-H1395; first compound 4 µM,0.93
same,relative viability,NCI-H1666; first compound 0.04 µM,0.745
same,relative viability,NCI-H1666; first compound 0.1265 µM,0.667
same,relative viability,NCI-H1666; first compound 0.4 µM,0.665
same,relative viability,NCI-H1666; first compound 4 µM,0.579
same,relative viability,NCI-H1993; first compound 0.04 µM,0.862
same,relative viability,NCI-H1993; first compound 0.1265 µM,0.86
same,relative viability,NCI-H1993; first compound 0.4 µM,0.812
same,relative viability,NCI-H1993; first compound 4 µM,0.833
same,relative viability,NCI-H2009; first compound 0.04 µM,0.486
same,relative viability,NCI-H2009; first compound 0.1265 µM,0.846
same,relative viability,NCI-H2009; first compound 0.4 µM,0.964
same,relative viability,NCI-H2009; first compound 4 µM,0.687
same,relative viability,NCI-H2023; first compound 0.04 µM,0.176
same,relative viability,NCI-H2023; first compound 0.1265 µM,0.793
same,relative viability,NCI-H2023; first compound 0.4 µM,0.536
same,relative viability,NCI-H2023; first compound 4 µM,0.719
same,relative viability,NCI-H2087; first compound 0.04 µM,1.06
same,relative viability,NCI-H2087; first compound 0.1265 µM,1.01
same,relative viability,NCI-H2087; first compound 0.4 µM,1.13
same,relative viability,NCI-H2087; first compound 4 µM,0.798
same,relative viability,NCI-H2126; first compound 0.04 µM,0.762
same,relative viability,NCI-H2126; first compound 0.1265 µM,0.757
same,relative viability,NCI-H2126; first compound 0.4 µM,0.764
same,relative viability,NCI-H2126; first compound 4 µM,0.763
same,relative viability,NCI-H2347; first compound 0.04 µM,0.79
same,relative viability,NCI-H2347; first compound 0.1265 µM,1.04
same,relative viability,NCI-H2347; first compound 0.4 µM,0.988
same,relative viability,NCI-H2347; first compound 4 µM,0.875
same,relative viability,NCI-H23; first compound 0.04 µM,0.886
same,relative viability,NCI-H23; first compound 0.1265 µM,1.16
same,relative viability,NCI-H23; first compound 0.4 µM,1.01
same,relative viability,NCI-H23; first compound 4 µM,1.04
same,relative viability,NCI-H3122; first compound 0.04 µM,1.05
same,relative viability,NCI-H3122; first compound 0.1265 µM,1.01
same,relative viability,NCI-H3122; first compound 0.4 µM,1.07
same,relative viability,NCI-H3122; first compound 4 µM,0.988
same,relative viability,NCI-H596; first compound 0.04 µM,1.07
same,relative viability,NCI-H596; first compound 0.1265 µM,1.24
same,relative viability,NCI-H596; first compound 0.4 µM,1.06
same,relative viability,NCI-H596; first compound 4 µM,1.03
same,relative viability,NCI-H647; first compound 0.04 µM,1.02
same,relative viability,NCI-H647; first compound 0.1265 µM,1.07
same,relative viability,NCI-H647; first compound 0.4 µM,1.16
same,relative viability,NCI-H647; first compound 4 µM,0.638
same,relative viability,NCI-H650; first compound 0.04 µM,0.583
same,relative viability,NCI-H650; first compound 0.1265 µM,0.852
same,relative viability,NCI-H650; first compound 0.4 µM,0.857
same,relative viability,NCI-H650; first compound 4 µM,0.697
same,relative viability,NCI-H727; first compound 0.04 µM,0.9
same,relative viability,NCI-H727; first compound 0.1265 µM,0.801
same,relative viability,NCI-H727; first compound 0.4 µM,0.78
same,relative viability,NCI-H727; first compound 4 µM,0.752
same,relative viability,NCI-H838; first compound 0.04 µM,0.911
same,relative viability,NCI-H838; first compound 0.1265 µM,0.911
same,relative viability,NCI-H838; first compound 0.4 µM,0.883
same,relative viability,NCI-H838; first compound 4 µM,0.781
